1 compound from patent US8173668B1 (Alcon Research, Ltd., priority 2007, dated 2012) can be followed below.

Molecules are shown by their SMILES.

For orientation: EC50 means the midpoint of the concentration-response curve. As a reminder, the Emax is the greatest response seen or fitted, relative to the assay's reference.

Assay [1] has as its target human cloned B2-receptors (Homo sapiens, UniProt P30411). Kind of assay: HTRF-based assay of endogenous IP1 production in CHO cells. It is filed as cell-based. Conditions: CHO cells expressing human cloned B2-receptors, read-out: EC50, production of endogenous IP1 from PI turnover. A general note: In TR-FRET formats the signal depends on donor and acceptor labels being close together.
Procedure: The cells are suspended in IP1 stimulation buffer containing Hepes 10 mM, CaCl2 1 mM, MgCl2 0.5 mM, KCl 4.2 mM, NaCl 146 mM, Glucose 5.5 mM, LiCl 50 mM pH 7.4, then distributed in microplates at a density of 40,000 cells/well (B2 receptor assays) or 30,000 cells/well (B1 receptor assays). Test compounds are added to the cells at various concentrations and incubated for 20 min at 37° C. […] Following the 20 min incubation at 37° C., the cells are lysed and the fluorescence acceptor (D2-labeled IP1) and fluorescence donor (anti-IP1 antibody labeled with europium cryptate) are added. After 60 min at room temperature, the fluorescence transfer is measured at λex=337 nm and λem=620 and 665 nm using a microplate reader.

The subject of another assay is h-NPE cells. The assay can be described thus: Prostaglandin production in h-NPE cells. To be noted: 1-10 μM. The assay is classed as cell-based, human. The method, then: A functional assay to discover BK agonists may involve the measurement of prostaglandin E2 (PGE2) production (Wiernas et al. Brit. J. Pharmacol. 123: 1127-1137, 1998), for instance, in cells isolated from human or animal ocular or non-ocular tissues, or cells expressing recombinant (preferably human) BK receptors. Cells expressing BK receptors are seeded in 48-wells culture plates and allowed to reach confluence. After this time the cells are rinsed twice with 0.5 mL of phosphate buffered saline and incubated with the test agent made up in 0.5 mL Dulbeco's modified Eagle's medium (DMEM)/F-12 for 1 h at 37° C. […]
After this incubation, all tubes are placed in an ice-bath and 1 ml cold precipitating reagent supplied in the kit is added to the tubes, the content mixed and incubated for 25 min at 4° C. […] The supernatants of all tubes are decanted as specified in the kit instructions and the RIA samples analyzed on a gamma-counter. The levels of PGE2 generated by the test agent are then quantified in comparison with the PGE2-standard curve. Dose-response data for the test agent are constructed and the potency and intrinsic activity determined as described above for other assays. […]

In assay [2] the test system is hypertensive eyes of cynomolgus monkeys. The assay can be described thus: IOP in lasered (hypertensive) eyes of cynomolgus monkeys, single dose (FIG. 9). The assay is classed as in vivo. Conditions: IOP at 8, 25 and 27.5 hours. The method, then:
Hours 5 and 8 were conscious IOPs. Hours 25 and 27.5 were made under sedation. […] Error bars indicate standard deviations.
Intraocular pressure (IOP) was determined with an Alcon Pneumatonometer (Alcon Laboratories, Inc., Fort Worth, Tex.) after light corneal anesthesia with 0.1% proparacaine. Right eyes were hypertensive as a result of laser trabeculoplasty. After a baseline IOP measurement, FR-190997 was instilled in the right eyes only of 12 cynomolgus monkeys. Vehicle was instilled in the right eyes of 5-6 additional animals. Subsequent IOP measurements were taken at 8, 25, and 27.5 hours. IOP measurements are also taken on left eyes (normotensive and untreated) at each of these time points. The percent change in IOP from baseline was determined for each animal for every IOP measurement (Sharif et al. J. Ocular Pharmacol. Ther. 17: 305-317, 2001; May et al., J Pharmacol Exp Ther. 306: 301-309, 2003; Sharif et al. Invest. Ophthalmol. Vis. Res. 47: 4001-4010, 2006). Group mean and standard error of the mean (SEM) were calculated for each time point.

Assay [3] has as its target T1, B2-receptors in h-NPE cells (Homo sapiens, UniProt P30411).
T1 construct: B2-receptor proteins in h-TM, h-CM and h-NPE cells; endogenous in cells; host or cells: human trabecular meshwork (h-TM), human ciliary muscle (h-CM) and human non-pigmented ciliary epithelial (h-NPE) cells
T1 sequence (P30411 1-391): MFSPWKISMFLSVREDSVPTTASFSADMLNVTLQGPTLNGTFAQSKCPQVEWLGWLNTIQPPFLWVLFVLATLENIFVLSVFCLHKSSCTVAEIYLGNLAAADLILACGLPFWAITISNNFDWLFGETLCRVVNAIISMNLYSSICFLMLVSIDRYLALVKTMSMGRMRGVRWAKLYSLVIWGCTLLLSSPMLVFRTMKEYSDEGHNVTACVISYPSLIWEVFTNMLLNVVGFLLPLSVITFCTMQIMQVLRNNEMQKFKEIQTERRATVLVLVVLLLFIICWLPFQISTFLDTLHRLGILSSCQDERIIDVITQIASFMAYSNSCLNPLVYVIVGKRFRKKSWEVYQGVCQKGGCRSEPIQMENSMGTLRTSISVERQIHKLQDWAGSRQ
Kind of assay: [Ca2+]i mobilization (FLIPR) in h-NPE cells, agonist mode. The assay is classed as cell-based. To be noted: h-NPE cells, mean ± SEM. On the procedure: On the day of the experiment, one vial of FLIPR Calcium Assay Kit dye is re-suspended in 50 mL of a FLIPR buffer consisting of Hank's Balanced Salt Solution (HBSS), 20 mM HEPES, and 2.5 mM probenecid, pH 7.4. Cells are loaded with the calcium-sensitive dye by addition of an equal volume (50 μL) to each well of the 96-well plate and incubated with dye for 1 h at 23° C. After this time, the test compound plate and cell plate are placed in the FLIPR instrument. At the beginning of an experimental run, a signal test is performed to check the basal fluorescence signal from the dye-loaded cells and the uniformity of the signal across the plate. The basal fluorescence is adjusted between 8000-12000 counts by modifying the exposure time, the camera F-stop, or the laser power. Instrument settings for a typical assay are the following: laser power 0.3-0.6 W, camera F-stop F/2, and exposure time 0.4 sec.
Fluorescence data are collected in real-time at 1.0 sec intervals for the first 60 secs and at 6.0 sec intervals for an additional 120 secs. […] The data are then analyzed using an automated, iterative, sigmoidal curve-fitting computer program to obtain the potency and intrinsic activities of the test agents as previously described (Sharif et al. J. Pharmacol. Exp. Ther. 286: 1094-1102, 1998; Sharif et al. Invest. Ophthalmol. Vis. Sci. 39:2562-2571, 1998; Kelly et al. J. Pharmacol. Exp. Ther. 304: 238-245, 2003). The sources of materials and reagents for such assays can be found in the references cited above.

Regarding `CNC(=O)c1ccc(/C=C/C(=O)NCC(=O)N(C)c2ccc(Cl)c(COc3cccc4c(OCc5ccccn5)cc(C)nc34)c2Cl)cc1` [FR-190997], the EC50 is 21 nM in assay [1] and 384 ± 39 nM in assay [3] (read-out: Potency (EC50), [Ca2+]i mobilization). This compound also gave a production of prostaglandins in the assay on h-NPE cells of 1.26 fold above basal. Further, in assay [2], the “effect on IOP compared with vehicle” value is recorded as “lowered IOP compared with vehicle”. Further, the maximal response (Emax) in assay [3] (read-out: Intrinsic Activity (Emax, % max relative to BK)) is 32%.
